Where two headings read alike, the source gives them in different places.
Tests used:
[1] = biological target: T1, complex of human CDK4 and cyclin D3 (Homo sapiens, UniProt P11802); test: Inhibition of CDK4/cyclin D retinoblastoma kinase activity (D-type cyclin is D3); assay type: biochemical; conditions: superscript a: D-type cyclin is D3; apparent Ki; read-out: Ki CDK 4/D
T1 construct: made in house; host or cells: insect cells, co-infected with baculovirus
Procedure: Cyclin-dependent kinase activity was measured by quantifying the enzyme-catalyzed, time-dependent incorporation of radioactive phosphate from [^32P]ATP or [^33P]ATP into a protein substrate. […] Reactions were initiated with enzyme, incubated at 30° C., and terminated after 20 minutes by the addition of ethylenediaminetetraacetic acid (EDTA) to 250 mM. […] Radioactivity was quantified by exposing the dried membranes to a phosphorimager.
(§1) Apparent Ki values were measured by assaying enzyme activity in the presence of different inhibitor compound concentrations and subtracting the background radioactivity measured in the absence of enzyme. The kinetic parameters (kcat, Km for ATP) were measured for each enzyme under the usual assay conditions by determining the dependence of initial rates on ATP concentration. Inhibition data were fit to an equation for competitive inhibition using Kaleidagraph (Synergy Software), or were fit to an equation for competitive tight-binding inhibition using the software KineTic (BioKin, Ltd.).
Phosphorylated Rb substrate was captured by microfiltration on a nitrocellulose membrane and quantified using a phosphorimager as described above. For measurement of tight-binding inhibitors, the enzyme complex concentration was lowered to 5 nM, and the assay duration was extended to 60 minutes, during which the time-dependence of product formation was linear.

CDK2/cyclin A = biological target: T2, CDK2/cyclin A (Homo sapiens, UniProt P24941); test: Inhibition of CDK2/cyclin A retinoblastoma kinase activity; assay type: biochemical; conditions: read-out: Ki CDK 2/A
T2 construct: made in house; host or cells: CDK2: insect cells (baculovirus); cyclin A: E. coli, then limited proteolysis
Procedure: Cyclin-dependent kinase activity was measured by quantifying the enzyme-catalyzed, time-dependent incorporation of radioactive phosphate from [^32P]ATP or [^33P]ATP into a protein substrate. Unless noted otherwise, assays were performed in 96-well plates in a total volume of 50 μL, in the presence of 10 mM HEPES (N-[2-hydroxyethyl]piperazine-N′-[2-ethanesulfonic acid]) (pH 7.4), 10 mM MgCl2, 25 μM adenosine triphosphate (ATP), 1 mg/mL ovalbumin, 5 μg/mL leupeptin, 1 mM dithiothreitol, 10 mM β-glycerophosphate, 0.1 mM sodium vanadate, 1 mM sodium fluoride, 2.5 mM ethylene glycol-bis(β-aminoethyl ether)-N,N,N′N′-tetraacetic acid (EGTA), 2% (v/v) dimethylsulfoxide, and 0.03-0.4 μCi [^32/33P]ATP per reaction. Reactions were initiated with enzyme, incubated at 30° C., and terminated after 20 minutes by the addition of ethylenediaminetetraacetic acid (EDTA) to 250 mM. The phosphorylated substrate was then captured on a nitrocellulose or phosphocellulose membrane using a 96-well filtration manifold, and unincorporated radioactivity was removed by repeated washing with 0.85% phosphoric acid. Radioactivity was quantified by exposing the dried membranes to a phosphorimager.
as §1
CDK2 was purified using published methodology (Rosenblatt et al., “Purification and Crystallization of Human Cyclin-dependent Kinase 2,” J. Mol. Biol., vol. 230, 1993, pp. 1317-1319) from insect cells that had been infected with a baculovirus expression vector. […] Purified, proteolyzed cyclin A was included in the assay at a three- to five-fold molar excess to CDK2. Alternatively, a complex of CDK2 and proteolyzed cyclin A was prepared and purified by gel filtration. The substrate for this assay was the same Rb substrate fragment used for the CDK4 assays, and the methodology of the CDK2/cyclin A and the CDK4/cyclin D3 assays was essentially the same, except that CDK2 was present at 150 nM or 5 nM. Ki values were measured as described above.

HCT116 = test: Inhibition of cell growth, MTT assay, HCT116; assay type: cell-based, human; conditions: for IC50 / IC90: Homo sapiens, HCT-116; for % inhibition of growth in parentheses after >25: concentration not given
Procedure: (§2) The water-insoluble purple formazan product was then detected spectrophotometrically. […] Plates were incubated for four hours before addition of inhibitor compounds. Different concentrations of inhibitor compounds were added in 0.5% (v/v) dimethylsulfoxide (15 μL/well), and cells were incubated at 37° C. (5% CO2) for four to six days (depending on cell type). At the end of the incubation, MTT was added to a final concentration of 0.2 mg/mL, and cells were incubated for 4 hours more at 37° C. After centrifugation of the plates and removal of medium, the absorbance of the formazan (solubilized in dimethylsulfoxide) was measured at 540 nm.

U2-OS = test: Inhibition of cell growth, MTT assay, U2-OS; assay type: cell-based; conditions: for IC50 / IC90: Homo sapiens, U2OS; for % inhibition of growth in parentheses after >25: concentration not given
Procedure: as §2

Saos-2 = test: Inhibition of cell growth, MTT assay, Saos-2; assay type: cell-based; conditions: Saos-2, MTT assay; for IC50 / IC90: Homo sapiens; for % inhibition of growth in parentheses after >25: concentration not given
Procedure: as §2

T1 sequence (P11802 whole entry): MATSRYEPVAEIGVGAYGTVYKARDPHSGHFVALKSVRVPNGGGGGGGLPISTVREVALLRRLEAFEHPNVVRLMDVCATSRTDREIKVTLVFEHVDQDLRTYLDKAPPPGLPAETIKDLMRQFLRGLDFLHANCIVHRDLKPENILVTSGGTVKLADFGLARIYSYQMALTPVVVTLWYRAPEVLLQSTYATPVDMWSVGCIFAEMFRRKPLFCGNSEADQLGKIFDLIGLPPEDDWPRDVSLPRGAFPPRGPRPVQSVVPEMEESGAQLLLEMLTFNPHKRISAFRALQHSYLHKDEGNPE
T1 sequence (P30281 whole entry partner): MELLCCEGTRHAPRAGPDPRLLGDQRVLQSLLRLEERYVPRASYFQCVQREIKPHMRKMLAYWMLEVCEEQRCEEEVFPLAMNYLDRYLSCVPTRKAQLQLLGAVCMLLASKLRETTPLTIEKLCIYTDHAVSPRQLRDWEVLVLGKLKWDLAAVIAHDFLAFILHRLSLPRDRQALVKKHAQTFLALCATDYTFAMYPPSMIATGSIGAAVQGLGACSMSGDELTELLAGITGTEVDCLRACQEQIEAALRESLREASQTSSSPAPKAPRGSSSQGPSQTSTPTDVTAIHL

SMILES	Ki [1]	Ki (CDK2/cyclin A)	IC50 (HCT116)	IC90 (HCT116)	IC50 (U2-OS)	IC90 (U2-OS)	Ki (CDK2/cyclin A; μM)	IC50 (Saos-2)	IC90 (Saos-2)	% inhibition of growth in parentheses after >25 (HCT116)	% inhibition of growth in parentheses after >25 (U2-OS)	% inhibition of growth in parentheses after >25 (Saos-2)
COc1ccc(Nc2nc(N)c(C(=O)c3ccccc3I)s2)cc1 [C(12), [4-Amino-2-(4-methoxy-phenylamino)-thiazol-5-yl]-(2-iodo-phenyl)-methanone]	0.027 µM	0.67 µM	2 µM	5 µM	1.9 µM	6 µM		2.1 µM	4.8 µM			
Cc1ccsc1C(=O)c1sc(Nc2ccc3nc[nH]c3c2)nc1N [C(19), [4-Amino-2-(1H-benzoimidazol-6-ylamino)-thiazol-5-yl]-(3-methyl-thiophen-2-yl)-methanone]	0.0158 µM	0.277 µM	9 µM	23 µM	15 µM	> 25 µM		7 µM	18 µM		77%	
CC(=O)Nc1ccc(Cl)c(C(=O)c2sc(Nc3ccc(N4CCN(C(=O)OC(C)(C)C)CC4)cc3)nc2N)c1Cl [C(106)]	0.134 µM	1.46 µM										
COC(=O)c1sc(Nc2ccc3nc[nH]c3c2)nc1N [A(12), 4-Amino-2-(1H-benzoimidazol-6-ylamino)-thiazole-5-carboxylic Acid Methyl Ester]	9.4 µM	4.1 µM										
Nc1nc(Nc2ccc3nc[nH]c3c2)sc1C(=O)[C@@H]1CCCN1C(=O)OCc1ccccc1 [C(64), 2S-[4-Amino-2-(1H-benzoimidazol-5-yl-amino)-thiazole-5-carbonyl]-N-carbobenzyloxy-pyrrolidine]	44 µM						42 µM					
Cc1ccc(C(=O)c2sc(Nc3ccccc3)nc2N)cc1 [I(12)]	0.38 µM	4.17 µM										
Cc1cccc(-c2ccccc2)c1C(=O)c1sc(Nc2ccc(N3CCOCC3)cc2)nc1N [C(83), [4-Amino-2-(4-morpholin-4-yl-phenylamino)-thiazol-5-yl]-(3-methyl-biphenyl-2-yl)-methanone]	1.8 µM						32 µM					
Cc1ccc(C(=O)c2sc(Nc3ccc(N4CCOCC4)cc3)nc2N)c(C)c1 [C(54), [4-Amino-2-(4-morpholin-4-yl-phenylamino)-thiazol-5-yl]-(2,4-dimethyl-phenyl)-methanone]	0.034 µM	0.453 µM										
CC(=O)N1CCN(c2ccc(Nc3nc(N)c(C(=O)c4cc(C)sc4C)s3)cc2)CC1 [C(112), 2-[4-(1-Acetyl-piperazin-4-yl)-phenylamino]-4-amino-thiazol-5-yl-(2,5-dimethyl-thiophen-3-yl)-methanone]	0.023 µM	0.408 µM										

Further lines, with some results ahead:

Ki [1]	Ki (CDK2/cyclin A)	IC50 (HCT116)	IC90 (HCT116)	IC50 (U2-OS)	IC90 (U2-OS)	Ki (CDK2/cyclin A; μM)	SMILES	IC50 (Saos-2)	IC90 (Saos-2)	% inhibition of growth in parentheses after >25 (HCT116)	% inhibition of growth in parentheses after >25 (U2-OS)	% inhibition of growth in parentheses after >25 (Saos-2)
0.011 µM	0.023 µM	9 µM	19 µM	12 µM	22 µM		Cc1ccc(C(=O)c2sc(Nc3ccc(S(N)(=O)=O)cc3)nc2N)c(C)c1 [C(35), 4-[4-Amino-5-(2,4-dimethyl-benzoyl)-thiazol-2-ylamino]-benzenesulfonamide]	8 µM	20 µM			
0.065 µM	0.305 µM	19 µM	> 25 µM	> 25 µM			Nc1nc(Nc2ccc(C(=O)C3COC(=O)[C@H]3N)cc2)sc1C(=O)c1c(Cl)cncc1Cl (stereo partly drawn) [C(88), trans-3RS-Amino-4RS-{4-[4-amino-5-(3,5-dichloropyridine-4-carbonyl)-thiazol-2-ylamino]-benzoyl}-dihydro-furan-2-one]	22 µM	> 25 µM	70%	26%	(56%)
0.025 µM	0.039 µM	4.3 µM	19 µM	11 µM	> 25 µM		Nc1nc(Nc2ccc(S(N)(=O)=O)cc2)sc1C(=O)c1c(Cl)cc(C(F)(F)F)cc1Cl [C(38), 4-[4-Amino-5-(2,6-dichloro-4-trifluoromethyl-benzoyl)-thiazol-2-ylamino]-benzenesulfonamide]	3 µM	> 25 µM		87%	80%
0.0068 µM	0.081 µM	4.7 µM	18 µM	19 µM	> 25 µM		Nc1nc(Nc2ccc3nc[nH]c3c2)sc1C(=O)c1c(Cl)cc(Br)c(N)c1Cl [C(91), [4-Amino-2-(1H-benzoimidazol-6-ylamino)-thiazol-5-yl]-(3-amino-4-bromo-2,6-dichloro-phenyl)-methanone]	5.9 µM	23 µM			
0.0138 µM	0.0125 µM	2.5 µM	7 µM	7.9 µM	12 µM		Nc1nc(Nc2ccc(S(N)(=O)=O)cc2)sc1C(=O)c1c(Cl)cc(Cl)cc1Cl [C(107), 4-[4-Amino-5-(2,4,6-trichloro-benzoyl)-thiazol-2-yl-amino]-benzenesulfonamide]	5.7 µM	12 µM			
0.011 µM	0.105 µM	8.5 µM	17 µM	15 µM	23 µM		Nc1nc(Nc2ccc3nc[nH]c3c2)sc1C(=O)c1c(Cl)cccc1Cl [C(52), [4-Amino-2-(1H-benzoimidazol-6-ylamino)-thiazol-5-yl]-(2,6-dichloro-phenyl)-methanone]	9 µM	22 µM			
0.0442 µM	0.467 µM	> 25 µM		> 25 µM			CC(=O)Nc1ccc(Cl)c(C(=O)c2sc(Nc3ccc4nc[nH]c4c3)nc2N)c1Cl [C(82), N-{3-[4-Amino-2-(1H-benzoimidazol-6-ylamino)-thiazole-5-carbonyl]-2,4-dichloro-phenyl}-acetamide]	> 25 µM		1%	1%	15%
0.056 µM	0.574 µM						Cc1cccc(C)c1C(=O)c1sc(Nc2ccc3nc[nH]c3c2)nc1N [C(60), [4-Amino-2-(1H-benzoimidazol-6-ylamino)-thiazol-5-yl]-(2,6-dimethyl-phenyl)-methanone]					
0.055 µM	0.326 µM						Nc1nc(Nc2ccc3nc[nH]c3c2)sc1C(=O)c1c(Cl)ccc([N+](=O)[O-])c1Cl [C(89), [4-Amino-2-(1H-benzoimidazol-6-ylamino)-thiazol-5-yl]-(2,6-dichloro-3-nitro-phenyl)-methanone]					
0.054 µM	0.162 µM						Nc1nc(Nc2ccc3nc[nH]c3c2)sc1C(=O)c1c(F)cccc1F [C(79), [4-Amino-2-(1H-benzoimidazol-6-ylamino)-thiazol-5-yl]-(2,6-difluoro-phenyl)-methanone]					
38 µM						14.3 µM	Nc1nc(Nc2ccc(S(N)(=O)=O)cc2)sc1C(=O)[C@@H]1CCCN1C(=O)OCc1ccccc1 [C(65), 2S-[4-Amino-2-(4-sulfamoyl-phenylamino)-thiazole-5-carbonyl]-N-carbobenzyloxy-pyrrolidine]					
0.285 µM	1.04 µM						Nc1nc(Nc2ccc3nc[nH]c3c2)sc1C(=O)c1cc(Cl)sc1Cl [C(93), [4-Amino-2-(1H-benzoimidazol-6-ylamino)-thiazol-5-yl]-(2,5-dichloro-thiophen-3-yl)-methanone]					

— patent US6569878B1, “Substituted 4-amino-thiazol-2-yl compounds as cyclin-dependent kinase inhibitors” (Agouron Pharmaceuticals Inc., priority 1997, dated 2003)
